From patent US20060233743A1, “Compositions and methods of therapy” (priority 2002, published 2006)

Legend:
[1] = system: cells of the immune system; experiment: release of IL-10 from cells of the immune system in the presence of GMCSF; assay type: cell-based
PDE = conditions: cited from earlier work
U937 cells = experiment: Example 5: IL-10 and TNFα mRNA in U937 cells; assay type: cell-based, human; conditions: differentiation, PMA 2×10^−7 M
Description: U937 (human monocyte cell line) cells were grown in RPMI (PAA Laboratories) medium with 10% fetal calf serum added (PAA Laboratories). Cells were treated with prostaglandin E2 at 10^−6 Molar, Rolipram 10^−6 Molar, Forskolin 50×10^−6 Molar with or without GMCSF at 5 ng/ml for 48 hours. Cells were pelleted and the mRNA was extracted with Tri reagent (Sigma, Poole, UK). Total RNA was obtained by addition of chloroform and subsequent isopropanol precipitation. RNA was reverse transcribed with reverse transcriptase (Applied Biosystems) and random hexamers (Applied Biosystems). Probes and primers for amplification and detection of IL-10 were designed using Primer Express (Applied Biosystems) and are as follows:
As for Example 4 but mRNA for TNFα alpha is also included.
Data is shown as the ratio of IL-10 mRNA/TNFα mRNA. P═PMA=Phorbol myristoyl acetate; F=Fsk=Forskolin, g=GMCSF, C=vehicle control.

type IV PDE = type IV PDE inhibitor; cited from earlier work

## 19-hydroxy PGE
[1]
  stimulation of IL-10: increased strikingly

## CC(C)Cn1c(=O)n(C)c(=O)c2[nH]cnc21 [IBMX, 3-isobutyl-1-methylxanthine]
PDE; non-specific PDE inhibitor
  IC50: 2 to 50 µM

## CCCCC[C@H](O)/C=C/[C@H]1[C@H](O)CC(=O)[C@@H]1C/C=C\CCCC(=O)O [PGE, prostaglandin E2]
[1]
  stimulation of IL-10: increased strikingly

## CCCCCCCCCCCCCC(=O)O[C@@H]1[C@@H](C)[C@@]2(O)[C@@H](C=C(CO)C[C@]3(O)C(=O)C(C)=C[C@@H]23)[C@@H]2C(C)(C)[C@]12OC(C)=O [PMA, Phorbol myristoyl acetate]
U937 cells
  IL-10 mRNA: increased
U937 cells; Forskolin 50×10^−6 Molar, GMCSF 5 ng/ml
  TNFα mRNA: also increased

## CCCCOc1cc(CC2CNC(=O)N2)ccc1OC (centres unmarked) [Ro-20-1724, 4-[3-butoxy-4-methoxybenzyl]-2-imidazolidinone]
Type IV PDE
  IC50: 2 µM

## COc1ccc(C2CNC(=O)C2)cc1OC1CCCC1 (centres unmarked) [rolipram, 4-[3-cyclopentyloxy-4-methoxyphenyl]-2-pyrrolidinone]
Type IV PDE
  IC50: 0.8 µM

## Cn1c(=O)c2[nH]cnc2n(C)c1=O [theophylline]
PDE; non-selective inhibitor compared with rolipram
  times less effective than rolipram: 30 times
